Laboratory results: US20250051347A1, “BIFUNCTIONAL CHIMERIC HETEROCYCLIC COMPOUND AND USE THEREOF AS ANDROGEN RECEPTOR DEGRADER” (Hinova Pharmaceuticals, Inc., priority 2021, published 2025)
Where two headings read alike, the source gives them in different places.

Experiments:
[1] = biological target: T1, androgen receptor (AR) splicing variant AR-v7 (Homo sapiens, UniProt P10275); experiment: Degradation activity on androgen receptor splicing variant AR-v7 in 22RV1 cells (ELISA); format: cell-based; settings: AR-v7 degradation in 22RV1 cells, 48 h, class symbols
T1 construct: The degradation activity of compounds on AR-v7 in 22RV1 cells; host or cells: 22RV1 cells
T1 sequence (P10275 1-644 isoform P10275-3): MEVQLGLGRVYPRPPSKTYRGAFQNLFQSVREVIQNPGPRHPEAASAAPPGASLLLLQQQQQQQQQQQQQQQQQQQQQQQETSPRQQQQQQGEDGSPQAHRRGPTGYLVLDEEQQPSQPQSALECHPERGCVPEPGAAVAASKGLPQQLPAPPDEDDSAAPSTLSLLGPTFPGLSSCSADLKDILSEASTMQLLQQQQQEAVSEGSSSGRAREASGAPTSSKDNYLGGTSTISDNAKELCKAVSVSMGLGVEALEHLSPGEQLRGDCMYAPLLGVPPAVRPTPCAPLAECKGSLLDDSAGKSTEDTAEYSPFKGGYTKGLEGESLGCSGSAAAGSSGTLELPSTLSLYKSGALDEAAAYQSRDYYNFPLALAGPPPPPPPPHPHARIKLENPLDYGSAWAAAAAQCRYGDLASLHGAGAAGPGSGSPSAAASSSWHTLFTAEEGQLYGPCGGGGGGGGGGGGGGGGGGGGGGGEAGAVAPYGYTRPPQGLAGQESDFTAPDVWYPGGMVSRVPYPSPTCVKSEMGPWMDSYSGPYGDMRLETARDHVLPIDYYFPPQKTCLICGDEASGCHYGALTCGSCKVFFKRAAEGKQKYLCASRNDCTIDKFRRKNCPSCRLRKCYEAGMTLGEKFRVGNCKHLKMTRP

[2] = Homo sapiens, 22Rv1, 144 h, read-out: 22RV1 IC50 (nM), 22RV1 cells, 6 days culture, CCK-8, OD 450 nm

CC(O)c1nccc(COc2ccc(C(C)(C)c3ccc(OCCCNc4ccc5c(c4)C(=O)N(C4CCC(=O)NC4=O)C5=O)cc3)cc2)n1 (stereo not shown) [Example 345, 2-(2,6-dioxopiperidin-3-yl)-5-((3-(4-(2-(4-((2-(1-hydroxylethyl)pyrimidin-4-yl)methoxy)phenyl)isopropan-2-yl)phenoxy)propyl)amino)isoindolin-1,3-dione]
DC50 [1]: 11 to 100 nM
IC50 (22RV1 cells; [2]): 10 nM

CC(C)(c1ccc(OCCCNc2ccc3c(c2)C(=O)N(C2CCC(=O)NC2=O)C3=O)cc1)c1ccc(OCc2ccnc(C(N)=O)n2)cc1 (stereo not shown) [Example 182, 4-((4-(2-(4-(3-((2-(2,6-dioxopiperidin-3-yl)-1,3-dioxoisoindolin-5-yl)amino)propoxy)phenyl)propan-2-yl)phenoxy)methyl)pyrimidin-2-carbonylamine]
DC50 [1]: 11 to 100 nM
IC50 (22RV1 cells; [2]): 50 nM

CC(C)(c1ccc(OCc2ccnc(N3CC(O)C3)n2)cc1)c1ccc(O[C@H]2C[C@@H](Nc3ccc4c(c3)C(=O)N(C3CCC(=O)NC3=O)C4=O)C2)cc1 (stereo partly shown) [Example 453]
DC50 [1]: < 10 nM
IC50 (22RV1 cells; [2]): 6 nM

CC(C)(c1ccc(OCc2ccnc(-n3ccnn3)n2)cc1)c1ccc(O[C@H]2C[C@H](Nc3ccc4c(c3)C(=O)N(C3CCC(=O)NC3=O)C4=O)C2)cc1 (stereo partly shown) [Example 230]
DC50 [1]: < 10 nM
IC50 (22RV1 cells; [2]): 9 nM

CC(C)(c1ccc(OCCCNc2ccc3c(c2)C(=O)N(C2CCC(=O)NC2=O)C3=O)cc1)c1ccc(OCc2ccnc(N3CCOCC3)n2)cc1 (stereo not shown) [Example 71, 2-(2,6-dioxopiperidin-3-yl)-5-((3-(4-(2-(4-((2-morpholinepyrimidin-4-yl)methoxy)phenyl)propan-2-yl)phenoxy)propyl)amino)isoindolin-1,3-dione]
DC50 [1]: 11 to 100 nM
IC50 (22RV1 cells; [2]): 35 nM

CC(C)(c1ccc(OCc2ccnc(N3CC[C@H](O)C3)n2)cc1)c1ccc(O[C@H]2C[C@@H](Nc3ccc4c(c3)C(=O)N(C3CCC(=O)NC3=O)C4=O)C2)cc1 (stereo partly shown) [Example 233]
DC50 [1]: < 10 nM
IC50 (22RV1 cells; [2]): 16 nM

CC(C)(c1ccc(OCc2ccnc(N3CCOCC3)n2)cc1)c1ccc(OC2CC(Nc3ccc4c(c3)C(=O)N(C3CCC(=O)NC3=O)C4=O)C2)cc1 (stereo not shown) [Example 396, 2-(2,6-dioxopyridin-3-yl)-5-(1s,3s)-3-(4-(2-(4-(2-morpholinylpyrimidin-4-yl)methoxy)phenyl)propan-2-yl)phenoxy)cyclobutyl)amino)isoindol-1,3-dione]
DC50 [1]: < 10 nM
IC50 (22RV1 cells; read-out: 22RV1 IC50, 22RV1 cells, 6 days culture, CCK-8, OD 450 nm): 23 nM

CC(C)(c1ccc(Oc2cc(-n3ccnn3)ccn2)cc1)c1ccc(O[C@H]2C[C@H](Nc3ccc4c(c3)C(=O)N(C3CCC(=O)NC3=O)C4=O)C2)cc1 (stereo partly shown) [Example 169]
DC50 [1]: < 10 nM
IC50 (22RV1 cells; [2]): 10 nM

Cc1nnc(-c2cc(Oc3ccc(C(C)(C)c4ccc(O[C@H]5C[C@H](Nc6ccc7c(c6)C(=O)N(C6CCC(=O)NC6=O)C7=O)C5)cc4)cc3)ccn2)o1 (stereo partly shown) [Example 172, 2-(2,6-dioxopyridin-3-yl)-5-(((1r,3r)-3-(4-(2-(4-((2-(5-methyl-1,3,4-oxadiazol-2-yl)pyridin-4-yl)oxy)phenyl)propan-2-yl)phenoxy)cyclobutyl)amino) isoindolin-1,3-dione]
DC50 [1]: < 10 nM
IC50 (22RV1 cells; [2]): 19 nM

CCC(CC)(c1ccc(Oc2ccc(-c3noc(C)n3)nn2)cc1)c1ccc(O[C@H]2C[C@@H](Nc3ccc4c(c3)C(=O)N(C3CCC(=O)NC3=O)C4=O)C2)cc1 (stereo partly shown) [Example 526]
DC50 [1]: < 10 nM
IC50 (22RV1 cells; Homo sapiens, 22Rv1, 144 h, read-out: 22RV1 IC50 (nM)): 5 nM

CC(O)c1ncc(Oc2ccc(C(C)c3ccc(O[C@H]4C[C@H](Nc5ccc6c(c5)C(=O)N(C5CCC(=O)NC5=O)C6=O)C4)cn3)cc2)cn1 (stereo partly shown) [Example 219]
DC50 [1]: < 10 nM
IC50 (22RV1 cells; [2]): 6 nM

CC(C)(c1ccc(Oc2ncnc(N3CC4(COC4)C3)n2)cc1)c1ccc(O[C@H]2C[C@H](Nc3ccc4c(c3)C(=O)N(C3CCC(=O)NC3=O)C4=O)C2)cc1 (stereo partly shown) [Example 160]
DC50 [1]: < 10 nM
IC50 (22RV1 cells; [2]): 8 nM

CC(C)(c1ccc(OCc2cncc(N3CC4(COC4)C3)n2)cc1)c1ccc(O[C@H]2C[C@@H](Nc3ccc4c(c3)C(=O)N(C3CCC(=O)NC3=O)C4=O)C2)cc1 (stereo partly shown) [Example 538]
IC50 (22RV1 cells; [2]): 12 nM
